Target: T1, HsTOP1 (Homo sapiens, UniProt P11387)
T1 construct: gene TOP1; recombinant human TOP1, wild type, purified from baculovirus expression
T1 sequence (P11387 2-765): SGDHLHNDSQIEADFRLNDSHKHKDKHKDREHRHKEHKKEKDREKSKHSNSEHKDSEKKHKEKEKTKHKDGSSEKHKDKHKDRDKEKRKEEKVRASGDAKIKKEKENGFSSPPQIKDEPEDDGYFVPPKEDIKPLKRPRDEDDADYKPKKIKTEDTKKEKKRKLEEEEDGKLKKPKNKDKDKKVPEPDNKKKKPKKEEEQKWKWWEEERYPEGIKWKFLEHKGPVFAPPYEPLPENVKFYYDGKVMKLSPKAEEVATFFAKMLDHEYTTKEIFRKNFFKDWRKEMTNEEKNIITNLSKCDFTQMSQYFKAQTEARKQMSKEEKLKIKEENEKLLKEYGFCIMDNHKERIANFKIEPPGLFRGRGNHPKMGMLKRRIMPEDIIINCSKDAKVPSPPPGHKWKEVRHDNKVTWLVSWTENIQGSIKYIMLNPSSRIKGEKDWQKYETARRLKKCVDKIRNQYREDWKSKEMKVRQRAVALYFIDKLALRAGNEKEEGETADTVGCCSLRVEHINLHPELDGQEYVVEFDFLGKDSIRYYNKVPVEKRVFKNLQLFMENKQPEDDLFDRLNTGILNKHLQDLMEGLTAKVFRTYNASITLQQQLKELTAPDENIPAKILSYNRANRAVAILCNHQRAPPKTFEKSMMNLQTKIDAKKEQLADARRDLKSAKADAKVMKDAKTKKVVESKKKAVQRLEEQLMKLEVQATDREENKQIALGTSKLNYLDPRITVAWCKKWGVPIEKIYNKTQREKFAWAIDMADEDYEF
Assay: […]-labelled oligonucleotide cleavage assay, denaturing PAGE
Assay type: biochemical
Conditions: traps TOP1-DNA cleavage complex; 30-bp DNA, pH 7.5, 5 mM Mg2+, 50 mM KCl, 25 °C

CC[C@@]1(O)C(=O)OCc2c1cc1n(c2=O)Cc2cc3ccccc3nc2-1 [CPT, camptothecin]
CPT-dependent cleavage bands: incubation of HsTOP1 induced TOP1ccs exclusively in the presence of CPT
